Test results as given in PubChem BioAssay AID1919004 (Molecular Pharmacology Branch, DTP, NCI, 2023).

System: 883617-216-R-J1-PDC complex spheroids, growth, % test/control
Assay: Anticancer human tumor 883617-216-R-J1-PDC patient-derived bladder carcinoma cell line growth inhibition [AhR]
Details: for IC50: curve of first compound; for viability, T/C: stronger effect = lower value; active means viability on the fitted dose curve at most 10% of control; inactive means the rest
Procedure, shortened: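 Spheroids combined tumor cells with HUVEC endothelial cells and human MSCs as stroma. AhR antagonists were paired with standard or investigational drugs, each dosed in half-log steps down from near clinical Cmax, or from 10 microM where Cmax was unknown.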

[1] = second compound 0.1 µM, first compound 0.0316 µM
[2] = second compound 0.1 µM, first compound 0.1 µM
[3] = second compound 0.1 µM, first compound 0.316 µM
[4] = second compound 0.1 µM, first compound 1 µM
[5] = second compound 0.316 µM, first compound 0.0316 µM
[6] = second compound 0.316 µM, first compound 0.1 µM
[7] = second compound 0.316 µM, first compound 0.316 µM
[8] = second compound 0.316 µM, first compound 1 µM
[9] = second compound 1 µM, first compound 0.0316 µM
[10] = second compound 1 µM, first compound 0.1 µM
[11] = second compound 1 µM, first compound 0.316 µM
[12] = second compound 1 µM, first compound 1 µM
[13] = second compound 3.16 µM, first compound 0.0316 µM
[14] = second compound 3.16 µM, first compound 0.1 µM
[15] = second compound 3.16 µM, first compound 0.316 µM
[16] = second compound 3.16 µM, first compound 1 µM
[17] = second compound 10 µM, first compound 0.0316 µM
[18] = second compound 10 µM, first compound 0.1 µM
[19] = second compound 10 µM, first compound 0.316 µM
[20] = second compound 10 µM, first compound 1 µM
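Further: exposure lasted 7 days after dosing on day 3 of spheroid growth.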

COc1cc(Nc2ncc3c(n2)-c2ccc(Cl)cc2C(c2c(F)cccc2OC)=NC3)ccc1C(=O)O + Cc1ccccc1N=Nc1ccc(NC(=O)c2ccnn2C)c(C)c1
> 10000 nM: IC50 (second compound 0.1 µM) | IC50 (second compound 0.316 µM) | IC50 (second compound 1 µM) | IC50 (second compound 3.16 µM) | IC50 (second compound 10 µM)
inactive: viability, T/C [1] 83.3% | viability, T/C [2] 78.7% | viability, T/C [3] 74.5% | viability, T/C [4] 63.2% | viability, T/C (second compound 0.1 µM, first compound 3.16 µM) 71.1% | viability, T/C (second compound 0.1 µM, first compound 10 µM) 63.6% | viability, T/C [5] 72.7% | viability, T/C [6] 83.1% | viability, T/C [7] 64.6% | viability, T/C [8] 62.6% | viability, T/C (second compound 0.316 µM, first compound 3.16 µM) 66.3% | viability, T/C (second compound 0.316 µM, first compound 10 µM) 63.2% | viability, T/C [9] 73.9% | viability, T/C [10] 73.7% | viability, T/C [11] 67.2% | viability, T/C [12] 72% | viability, T/C (second compound 1 µM, first compound 3.16 µM) 63.7% | viability, T/C (second compound 1 µM, first compound 10 µM) 53.7% | viability, T/C [13] 67.4% | viability, T/C [14] 76.3% | viability, T/C [15] 69.6% | viability, T/C [16] 62.1% | viability, T/C (second compound 3.16 µM, first compound 3.16 µM) 67% | viability, T/C (second compound 3.16 µM, first compound 10 µM) 56.4% | viability, T/C [17] 68.9% | viability, T/C [18] 67.7% | viability, T/C [19] 67.8% | viability, T/C [20] 61.3% | viability, T/C (second compound 10 µM, first compound 3.16 µM) 58.7% | viability, T/C (second compound 10 µM, first compound 10 µM) 50.8%

CC1COCCN1c1cc(-c2ccnn2C)c2ccnc(-c3ccn[nH]3)c2n1 (stereo not given) + Cc1ccccc1N=Nc1ccc(NC(=O)c2ccnn2C)c(C)c1
491 nM: IC50 (second compound 3.16 µM)
inactive: viability, T/C (second compound 0.1 µM, first compound 0.00316 µM) 98% | viability, T/C (second compound 0.1 µM, first compound 0.01 µM) 96.6% | viability, T/C [1] 76.7% | viability, T/C [2] 74.6% | viability, T/C [3] 58.6% | viability, T/C [4] 49.1% | viability, T/C (second compound 0.316 µM, first compound 0.00316 µM) 97.7% | viability, T/C (second compound 0.316 µM, first compound 0.01 µM) 83.3% | viability, T/C [5] 85.9% | viability, T/C [6] 69.6% | viability, T/C [7] 55.7% | viability, T/C [8] 51.4% | viability, T/C (second compound 1 µM, first compound 0.00316 µM) 84.4% | viability, T/C (second compound 1 µM, first compound 0.01 µM) 88.8% | viability, T/C [9] 70.3% | viability, T/C [10] 67.7% | viability, T/C [11] 56% | viability, T/C [12] 48.4% | viability, T/C (second compound 3.16 µM, first compound 0.00316 µM) 86.5% | viability, T/C (second compound 3.16 µM, first compound 0.01 µM) 81.2% | viability, T/C [13] 71.2% | viability, T/C [14] 71.2% | viability, T/C [15] 49.8% | viability, T/C [16] 44.3% | viability, T/C (second compound 10 µM, first compound 0.00316 µM) 77.9% | viability, T/C (second compound 10 µM, first compound 0.01 µM) 79.7% | viability, T/C [17] 66.6% | viability, T/C [18] 61.7% | viability, T/C [19] 52.4% | viability, T/C [20] 48.1%
624 nM: IC50 (second compound 10 µM)
906 nM: IC50 (second compound 0.1 µM)
813 nM: IC50 (second compound 1 µM)
> 1000 nM: IC50 (second compound 0.316 µM)
